Where a SMILES comes first, the peptide text is derived from it.
What was measured:
Conditions in all cases: Hit No
[1] = molecular target: T1, Adenine DNA glycosylase (Homo sapiens) (UniProt Q9UIF7);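 note: human MUTYH activity read as 594 nm fluorescence from cleavage and release of a quenched DNA duplex, coupled with APE1 for strand incision, lower signal meaning inhibition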
T1 sequence (whole entry): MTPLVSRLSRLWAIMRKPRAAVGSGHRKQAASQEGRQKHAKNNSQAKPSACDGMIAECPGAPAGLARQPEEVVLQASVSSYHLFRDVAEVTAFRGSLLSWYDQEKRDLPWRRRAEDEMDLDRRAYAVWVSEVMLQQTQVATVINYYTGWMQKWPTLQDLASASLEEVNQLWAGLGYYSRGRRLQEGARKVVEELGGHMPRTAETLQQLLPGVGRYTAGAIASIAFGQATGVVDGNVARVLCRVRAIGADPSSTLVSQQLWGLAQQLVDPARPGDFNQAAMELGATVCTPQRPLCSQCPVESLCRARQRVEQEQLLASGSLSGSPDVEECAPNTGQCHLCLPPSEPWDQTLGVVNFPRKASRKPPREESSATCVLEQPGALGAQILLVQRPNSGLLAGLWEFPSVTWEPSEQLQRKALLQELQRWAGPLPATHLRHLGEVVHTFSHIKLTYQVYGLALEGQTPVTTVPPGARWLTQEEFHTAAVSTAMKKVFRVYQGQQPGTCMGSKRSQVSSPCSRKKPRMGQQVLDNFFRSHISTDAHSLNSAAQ
Description: Inhibition of MUTYH by quantifying inhibition of MUTYH-mediated cleavage and dissociation of quenched duplex DNA oligonucleotides, measured as fluorescence at 594 nm. To generate a functional strand incision and increase turn-over this assay is coupled to APE1.

[2] = molecular target: Endonuclease 8-like 1 (Homo sapiens) (UniProt Q96FI4);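 note: fluorescence at 594 nm from quenched duplex DNA oligonucleotides released by NEIL1 cleavage and strand separation, reported as reduction of this enzyme activity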
Description: Inhibition of NEIL1 by quantifying inhibition of NEIL1-mediated cleavage and dissociation of quenched duplex DNA oligonucleotides, measured as fluorescence at 594 nm.

[3] = molecular target: T2, Endonuclease 8-like 2 (Homo sapiens) (UniProt Q969S2);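 note: fluorescence at 594 nm reports NEIL2 cutting and release of a quenched double-stranded DNA oligo substrate, reduced signal read as inhibition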
T2 sequence (whole entry): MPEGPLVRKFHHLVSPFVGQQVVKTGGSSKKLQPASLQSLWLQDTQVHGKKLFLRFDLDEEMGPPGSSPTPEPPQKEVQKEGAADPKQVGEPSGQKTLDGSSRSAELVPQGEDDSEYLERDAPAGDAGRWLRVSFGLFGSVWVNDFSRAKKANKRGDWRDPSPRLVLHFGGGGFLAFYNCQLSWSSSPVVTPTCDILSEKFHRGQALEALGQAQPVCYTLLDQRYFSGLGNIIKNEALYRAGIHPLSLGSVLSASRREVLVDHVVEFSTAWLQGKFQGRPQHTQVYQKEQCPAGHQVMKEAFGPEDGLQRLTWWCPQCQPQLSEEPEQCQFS
Description: Inhibition of NEIL2 by quantifying inhibition of NEIL2-mediated cleavage and dissociation of quenched duplex DNA oligonucleotides, measured as fluorescence at 594 nm.

[4] = molecular target: N-glycosylase/DNA lyase (Homo sapiens) (UniProt O15527);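 note: OGG1 cleavage of a quenched duplex DNA oligonucleotide, coupled to APE1 for strand incision, read as fluorescence at 594 nm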
Description: Inhibition of OGG1 by quantifying inhibition of OGG1-mediated cleavage and dissociation of quenched duplex DNA oligonucleotides, measured as fluorescence at 594 nm. To generate a functional strand incision and increase turn-over this assay is coupled to APE1.

[5] = molecular target: T3, Single-strand selective monofunctional uracil DNA glycosylase (Homo sapiens) (UniProt Q53HV7);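 note: enzymatic SMUG1 assay coupled with APE1, reading fluorescence at 594 nm released when a quenched double-stranded DNA oligonucleotide substrate is cleaved and separated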
T3 sequence (whole entry): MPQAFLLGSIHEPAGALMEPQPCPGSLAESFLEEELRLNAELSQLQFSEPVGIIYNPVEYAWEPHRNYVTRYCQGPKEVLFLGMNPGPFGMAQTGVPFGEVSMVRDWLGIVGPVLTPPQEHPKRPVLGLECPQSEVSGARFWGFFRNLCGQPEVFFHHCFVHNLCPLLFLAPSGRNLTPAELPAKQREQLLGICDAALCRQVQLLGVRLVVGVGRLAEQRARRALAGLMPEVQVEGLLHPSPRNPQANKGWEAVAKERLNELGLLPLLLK
Description: Inhibition of SMUG1 by quantifying inhibition of SMUG1-mediated cleavage and dissociation of quenched duplex DNA oligonucleotides, measured as fluorescence at 594 nm. To generate a functional strand incision and increase turn-over this assay is coupled to APE1.

[6] = molecular target: G/T mismatch-specific thymine DNA glycosylase (Homo sapiens) (UniProt Q13569);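 note: human TDG cleavage of quenched duplex DNA oligonucleotides coupled to APE1, strand release read as fluorescence at 594 nm, inhibition of TDG activity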
Description: Inhibition of TDG by quantifying inhibition of TDG-mediated cleavage and dissociation of quenched duplex DNA oligonucleotides, measured as fluorescence at 594 nm. To generate a functional strand incision and increase turn-over this assay is coupled to APE1.

[7] = molecular target: Uracil-DNA glycosylase (Homo sapiens) (UniProt P13051);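 note: UNG excision on a quenched double-stranded DNA oligo probe, with APE1 added for strand incision and turnover, read as fluorescence at 594 nm as strands separate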
Description: Inhibition of UNG by quantifying inhibition of UNG-mediated cleavage and dissociation of quenched duplex DNA oligonucleotides, measured as fluorescence at 594 nm. To generate a functional strand incision and increase turn-over this assay is coupled to APE1.

[8] = molecular target: Methyl-CpG-binding domain protein 4 (Homo sapiens) (UniProt O95243);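 note: MBD4 activity read as fluorescence at 594 nm from cleavage and release of a quenched duplex DNA oligonucleotide, with APE1 coupled to incise the strand and raise turnover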
Description: Inhibition of MBD4 by quantifying inhibition of MBD4-mediated cleavage and dissociation of quenched duplex DNA oligonucleotides, measured as fluorescence at 594 nm. To generate a functional strand incision and increase turn-over this assay is coupled to APE1.

[9] = molecular target: T4, Endonuclease III-like protein 1 (Homo sapiens) (UniProt P78549);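 note: enzyme assay tracking NTHL1 cutting and release of a quenched double-stranded DNA oligo substrate, read as fluorescence at 594 nm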
T4 sequence (whole entry): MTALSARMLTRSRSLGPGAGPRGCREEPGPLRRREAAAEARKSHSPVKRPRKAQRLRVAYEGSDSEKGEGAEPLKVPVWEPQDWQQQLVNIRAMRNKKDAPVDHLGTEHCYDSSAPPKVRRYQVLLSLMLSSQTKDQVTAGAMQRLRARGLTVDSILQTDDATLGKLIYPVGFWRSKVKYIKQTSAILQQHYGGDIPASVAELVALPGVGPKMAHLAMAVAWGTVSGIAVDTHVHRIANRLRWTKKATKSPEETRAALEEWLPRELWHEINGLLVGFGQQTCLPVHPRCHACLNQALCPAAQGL
Description: Inhibition of NTHL1 by quantifying inhibition of NTHL1-mediated cleavage and dissociation of quenched duplex DNA oligonucleotides, measured as fluorescence at 594 nm.

Sequence of N-glycosylase/DNA lyase (Homo sapiens) (O15527 whole entry): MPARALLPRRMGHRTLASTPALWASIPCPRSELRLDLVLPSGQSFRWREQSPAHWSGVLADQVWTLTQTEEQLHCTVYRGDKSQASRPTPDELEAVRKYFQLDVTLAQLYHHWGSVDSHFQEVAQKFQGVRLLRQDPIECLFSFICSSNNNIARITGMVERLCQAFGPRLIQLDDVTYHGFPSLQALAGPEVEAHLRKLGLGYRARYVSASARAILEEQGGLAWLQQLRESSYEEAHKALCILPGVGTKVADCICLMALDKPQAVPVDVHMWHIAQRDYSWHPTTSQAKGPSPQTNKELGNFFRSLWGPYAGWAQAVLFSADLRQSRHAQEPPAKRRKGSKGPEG
Sequence of G/T mismatch-specific thymine DNA glycosylase (Homo sapiens) (Q13569 whole entry): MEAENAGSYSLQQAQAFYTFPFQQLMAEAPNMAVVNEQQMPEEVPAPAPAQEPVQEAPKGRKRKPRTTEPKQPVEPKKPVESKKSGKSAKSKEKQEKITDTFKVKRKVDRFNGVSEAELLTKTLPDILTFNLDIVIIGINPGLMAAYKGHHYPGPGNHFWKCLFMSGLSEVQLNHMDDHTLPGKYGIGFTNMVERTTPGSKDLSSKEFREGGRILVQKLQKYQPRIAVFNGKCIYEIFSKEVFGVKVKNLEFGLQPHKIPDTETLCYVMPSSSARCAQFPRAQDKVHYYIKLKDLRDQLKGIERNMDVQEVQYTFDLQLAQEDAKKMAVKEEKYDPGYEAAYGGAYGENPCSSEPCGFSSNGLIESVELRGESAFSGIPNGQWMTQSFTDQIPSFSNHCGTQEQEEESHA
Sequence of Uracil-DNA glycosylase (Homo sapiens) (P13051 whole entry, the tested form may be a part): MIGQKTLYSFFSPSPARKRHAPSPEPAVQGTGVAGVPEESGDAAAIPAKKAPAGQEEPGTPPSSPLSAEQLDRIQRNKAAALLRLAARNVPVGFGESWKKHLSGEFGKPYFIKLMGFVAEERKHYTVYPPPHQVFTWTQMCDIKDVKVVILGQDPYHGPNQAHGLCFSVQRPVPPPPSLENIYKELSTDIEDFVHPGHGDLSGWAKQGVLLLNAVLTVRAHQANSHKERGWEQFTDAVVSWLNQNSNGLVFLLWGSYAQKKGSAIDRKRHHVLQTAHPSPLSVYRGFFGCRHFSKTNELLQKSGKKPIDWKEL
Sequence of Endonuclease 8-like 1 (Homo sapiens) (Q96FI4 whole entry): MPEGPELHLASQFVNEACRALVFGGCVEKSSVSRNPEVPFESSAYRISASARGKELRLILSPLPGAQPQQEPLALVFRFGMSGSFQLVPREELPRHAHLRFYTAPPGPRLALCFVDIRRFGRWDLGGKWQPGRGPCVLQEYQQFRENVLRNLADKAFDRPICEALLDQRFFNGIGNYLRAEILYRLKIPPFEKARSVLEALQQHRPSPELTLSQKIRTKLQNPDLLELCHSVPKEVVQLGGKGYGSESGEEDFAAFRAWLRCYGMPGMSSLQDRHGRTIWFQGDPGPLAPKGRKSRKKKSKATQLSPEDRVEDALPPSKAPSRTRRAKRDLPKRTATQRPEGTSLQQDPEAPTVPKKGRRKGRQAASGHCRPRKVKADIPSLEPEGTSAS
Sequence of Methyl-CpG-binding domain protein 4 (Homo sapiens) (O95243 whole entry, the tested form may be a part): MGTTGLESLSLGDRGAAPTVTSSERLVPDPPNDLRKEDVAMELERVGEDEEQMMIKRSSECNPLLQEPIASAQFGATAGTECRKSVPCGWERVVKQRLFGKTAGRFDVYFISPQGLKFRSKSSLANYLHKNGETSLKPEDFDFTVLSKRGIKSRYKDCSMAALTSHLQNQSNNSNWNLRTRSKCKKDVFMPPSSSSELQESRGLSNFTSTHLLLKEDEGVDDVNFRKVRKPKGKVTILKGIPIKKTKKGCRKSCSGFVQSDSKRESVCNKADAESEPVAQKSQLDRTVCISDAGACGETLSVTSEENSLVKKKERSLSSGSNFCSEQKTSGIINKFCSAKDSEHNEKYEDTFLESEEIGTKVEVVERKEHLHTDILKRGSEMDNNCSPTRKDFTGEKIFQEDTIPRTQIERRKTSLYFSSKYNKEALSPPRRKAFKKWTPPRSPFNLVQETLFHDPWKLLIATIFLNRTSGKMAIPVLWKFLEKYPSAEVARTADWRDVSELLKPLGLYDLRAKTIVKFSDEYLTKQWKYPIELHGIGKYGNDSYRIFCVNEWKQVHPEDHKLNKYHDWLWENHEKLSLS

| SMILES | inhibition ([1]; Compound Concentration 10.0 uM) | inhibition ([2]; Compound Concentration 10.0 uM) | inhibition ([3]; Compound Concentration 10.0 uM) | inhibition ([4]; Compound Concentration 10.0 uM) | inhibition ([5]; Compound Concentration 10.0 uM) | inhibition ([6]; Compound Concentration 10.0 uM) | inhibition ([7]; Compound Concentration 10.0 uM) | inhibition ([8]; Compound Concentration 10.0 uM) | inhibition ([1]; Compound Concentration 1.0 uM) | inhibition ([2]; Compound Concentration 1.0 uM) | inhibition ([3]; Compound Concentration 1.0 uM) | inhibition ([4]; Compound Concentration 1.0 uM) | inhibition ([5]; Compound Concentration 1.0 uM) | inhibition ([6]; Compound Concentration 1.0 uM) | inhibition ([7]; Compound Concentration 1.0 uM) | inhibition ([8]; Compound Concentration 1.0 uM) | inhibition ([9]; Compound Concentration 1.0 uM) | inhibition ([9]; Compound Concentration 10.0 uM) |
| --- | --- | --- | --- | --- | --- | --- | --- | --- | --- | --- | --- | --- | --- | --- | --- | --- | --- | --- |
| C[C@@](Cc1c[nH]c2ccccc12)(NC(=O)Nc1ccc([N+](=O)[O-])cc1)C(=O)NCC1(c2ccccn2)CCCCC1 | 3.6% | 7.51% | 5.26% | -2.05% | 0.936% | 0.518% |  |  |  |  |  |  |  |  |  |  |  |  |
| Cc1c(CC(=O)O)c2cccnc2n1Cc1ccc(S(C)(=O)=O)cc1C(F)(F)F | 7.57% | 0.834% | 7.75% | -4.75% | -4.39% | -3.98% |  |  |  |  |  |  |  |  |  |  |  |  |
| Oc1cc2c(cc1O)C(c1ccccc1)CNCC2 (stereo not drawn) | 6.16% | -0.945% | 7.5% | -0.929% | -4.15% | 16.1% |  |  |  |  |  |  |  |  |  |  |  |  |
| COc1ccc(C(=O)N2CCN(C(=O)/C=C/c3ccc(Br)cc3)CC2)cc1 | 16.7% | 2.61% | -6.97% | -3.17% | -0.421% | -0.119% |  |  |  |  |  |  |  |  |  |  |  |  |
| Cc1cc(C(=O)N2Cc3cnn(C)c3Nc3ccccc32)ccc1CNC(=O)N1CCC[C@H]1C(=S)N1CCCN(C)CC1 | -9.83% | -1.83% | 2.51% | -7% | -2.21% | -7.26% |  |  |  |  |  |  |  |  |  |  |  |  |
| C[C@@H](N)Cc1c[nH]cn1 | -1.26% | 3.8% | -9.22% | -8% | -2.12% | 19% | -6.39% |  |  |  |  |  |  |  |  |  |  |  |
| COc1cccc([C@@H](C)NCCCc2ccccc2Cl)c1 | -7.79% | -0.352% |  | -9.29% | 3.94% | 6.54% |  |  |  |  |  |  |  |  |  |  |  |  |
| CC(C)Oc1ccccc1C(=O)Nc1ccccc1C(=O)Nc1cccc(S(=O)(=O)C(F)(F)F)c1 | 8.72% | -8.8% | -0.483% |  |  | 4.21% | -8.11% |  |  |  |  |  |  |  |  |  |  |  |
| Clc1cccc(COc2cncc(N3CCNCC3)n2)c1 | 5.27% | 5.13% | 1.26% |  | 1.71% | -5.02% | -8.45% | -8.79% |  |  |  |  |  |  |  |  |  |  |
| NC[C@H](O)c1ccc(O)c(O)c1 | -7.66% | 2.61% | -0.983% | -2.34% |  |  |  |  |  |  |  |  |  |  |  |  |  |  |
| Cc1nc[nH]c1CCN | -5.1% | -5.39% | -3.73% | -7.09% | -7.49% | 8.2% |  |  |  |  |  |  |  |  |  |  |  |  |
| Cc1cc(NC(=O)Nc2ccc(N(C)C)cc2)c2cc(F)cc(F)c2n1 | 6.04% |  |  |  | -2.31% | 9.41% | -7.93% | 6.31% |  |  |  |  |  |  |  |  |  |  |
| CC(C)C[C@@H]1NC(=O)[C@@H](C(C)C)NC(=O)[C@@H]2CCCN2C(=O)[C@@H](CC(=O)O)NC(=O)[C@@H](Cc2c[nH]c3ccccc23)NC1=O (HELM PEPTIDE1{L.[dW].[dD].P.[dV]}$PEPTIDE1,PEPTIDE1,1:R1-5:R2$$$V2.0) | 6.29% | -3.47% | 0.764% |  | -0.372% | 0.54% |  | -8.68% |  |  |  |  |  |  |  |  |  |  |
| CN1CCN(c2ccc(OC(F)(F)F)c(Nc3ncc4c(n3)-c3c(c(C(N)=O)nn3CCO)CC4)c2)CC1 |  |  |  |  |  |  |  |  | 27.3% | 1.33% | -8.92% | -4.24% | 13.3% | 38.7% | 3.38% |  |  |  |
| CCOC(=O)c1c(/C(C#N)=C\N)c2ccc(Cl)c(Cl)c2n1C |  |  |  |  |  |  |  |  | -2.85% | -2.9% | -5.96% | -3.98% | 12.4% | 41.6% | 0.379% |  |  |  |
| CN1C(=O)[C@@H](N2CCc3c(nn(Cc4ccccc4)c3Br)C2=O)COc2ccccc21 |  |  |  |  |  |  |  |  |  | -6.27% | -4.38% | 0.775% | 3.33% | 32.5% | -2.6% | 25% | -4.24% |  |
| CO[C@H]1CC[C@H](CNc2ccc(S(=O)(=O)NC(=O)c3ccc(N4CCN(CC5=C(c6ccc(Cl)cc6)CC(C)(C)CC5)CC4)cc3Oc3cnc4[nH]ccc4c3)cc2[N+](=O)[O-])CC1 |  | -6.8% | 2.57% | 62% | 17.9% | 47.9% | 3.44% | 55.7% |  |  |  |  |  |  |  |  |  | -7.86% |
| C[C@H](NC(=O)c1cn(C2(C#N)CC2)cn1)C(=O)Nc1nc(-c2cccc(-c3ccn(C)n3)c2)cs1 |  |  |  |  |  |  |  |  |  | -5.74% | -9.67% | -5.28% | 3.85% | 51.4% | 1.27% | 59.5% | -7.2% |  |
| COc1ccc(CC[C@@H](OC(=O)[C@H]2CCCCN2C(=O)[C@@H](c2cc(OC)c(OC)c(OC)c2)C2CCCCC2)c2cccc(OCCN3CCOCC3)c2)cc1OC |  | -4.53% | 4.61% | -1.2% | 19.6% | 97% | 9.57% | 63.9% |  |  |  |  |  |  |  |  |  | 0.685% |
| CN1CC(=O)N=C1NC(=O)Nc1cccc(Cl)c1 | 3.99% | -2.58% | 3.76% | -2.01% | -1.34% | -6.27% |  |  |  |  |  |  |  |  |  |  |  |  |
| COc1ccc(S(=O)(=O)c2cc(OC)ccc2S(=O)(=O)c2ccc([C@H](C)NS(C)(=O)=O)cc2)cc1 | 12.1% | 2.76% | 4.76% | -5.59% | 4.18% | -5.72% |  |  |  |  |  |  |  |  |  |  |  |  |

From ChEMBL document CHEMBL5665443, “Enzyme Inhibitor Single Concentration assay results for EUbOPEN Chemogenomics Library” (2024)
